# According to ChEMBL document CHEMBL1145828, “Development of natural product-derived receptor tyrosine kinase inhibitors based on conservation of protein domain fold” (J Med Chem, 2003):
# Active and inactive are the calls of the source. The calls are words filed in the database; no cut-off is given here.
# Experiments:
# [1] = target: T1, Epidermal growth factor receptor (Homo sapiens, UniProt P00533); assay: Inhibition of Epidermal growth factor receptor
# [2] = target: T2, Vascular endothelial growth factor receptor 3 (Homo sapiens, UniProt P35916); assay: Inhibition of Vascular endothelial growth factor receptor 3 (No effect)
# [3] = target: T3, Vascular endothelial growth factor receptor 2 (Homo sapiens, UniProt P35968); assay: Inhibition of Vascular endothelial growth factor receptor 2
# [4] = target: T4, Receptor tyrosine-protein kinase erbB-2 (Homo sapiens, UniProt P04626); assay: Inhibition of ERBB2 receptor kinase (No effect)
# [5] = target: T5, Insulin-like growth factor 1 receptor (Homo sapiens, UniProt P08069); assay: Inhibition of Insulin-like growth factor I receptor
# Angiopoietin-1 receptor [6] = target: T6, Angiopoietin-1 receptor (Homo sapiens, UniProt Q02763); assay: Inhibition of Tyrosine protein kinase receptor TIE-2
# [7] = target: T1, Epidermal growth factor receptor; assay: Inhibition of Epidermal growth factor receptor (No effect)
# [8] = target: T3, Vascular endothelial growth factor receptor 2; assay: Inhibition of Vascular endothelial growth factor receptor 2 (No effect)
# [9] = target: T5, Insulin-like growth factor 1 receptor; assay: Inhibition of Insulin-like growth factor I receptor (No effect)
# [10] = target: T4, Receptor tyrosine-protein kinase erbB-2; assay: Inhibition of ERBB2 receptor kinase
# Angiopoietin-1 receptor [11] = target: T6, Angiopoietin-1 receptor; assay: Inhibition of Tyrosine protein kinase receptor TIE-2 (No effect)
# [12] = target: T2, Vascular endothelial growth factor receptor 3; assay: Inhibition of Vascular endothelial growth factor receptor 3
# T1 sequence (P00533 whole entry): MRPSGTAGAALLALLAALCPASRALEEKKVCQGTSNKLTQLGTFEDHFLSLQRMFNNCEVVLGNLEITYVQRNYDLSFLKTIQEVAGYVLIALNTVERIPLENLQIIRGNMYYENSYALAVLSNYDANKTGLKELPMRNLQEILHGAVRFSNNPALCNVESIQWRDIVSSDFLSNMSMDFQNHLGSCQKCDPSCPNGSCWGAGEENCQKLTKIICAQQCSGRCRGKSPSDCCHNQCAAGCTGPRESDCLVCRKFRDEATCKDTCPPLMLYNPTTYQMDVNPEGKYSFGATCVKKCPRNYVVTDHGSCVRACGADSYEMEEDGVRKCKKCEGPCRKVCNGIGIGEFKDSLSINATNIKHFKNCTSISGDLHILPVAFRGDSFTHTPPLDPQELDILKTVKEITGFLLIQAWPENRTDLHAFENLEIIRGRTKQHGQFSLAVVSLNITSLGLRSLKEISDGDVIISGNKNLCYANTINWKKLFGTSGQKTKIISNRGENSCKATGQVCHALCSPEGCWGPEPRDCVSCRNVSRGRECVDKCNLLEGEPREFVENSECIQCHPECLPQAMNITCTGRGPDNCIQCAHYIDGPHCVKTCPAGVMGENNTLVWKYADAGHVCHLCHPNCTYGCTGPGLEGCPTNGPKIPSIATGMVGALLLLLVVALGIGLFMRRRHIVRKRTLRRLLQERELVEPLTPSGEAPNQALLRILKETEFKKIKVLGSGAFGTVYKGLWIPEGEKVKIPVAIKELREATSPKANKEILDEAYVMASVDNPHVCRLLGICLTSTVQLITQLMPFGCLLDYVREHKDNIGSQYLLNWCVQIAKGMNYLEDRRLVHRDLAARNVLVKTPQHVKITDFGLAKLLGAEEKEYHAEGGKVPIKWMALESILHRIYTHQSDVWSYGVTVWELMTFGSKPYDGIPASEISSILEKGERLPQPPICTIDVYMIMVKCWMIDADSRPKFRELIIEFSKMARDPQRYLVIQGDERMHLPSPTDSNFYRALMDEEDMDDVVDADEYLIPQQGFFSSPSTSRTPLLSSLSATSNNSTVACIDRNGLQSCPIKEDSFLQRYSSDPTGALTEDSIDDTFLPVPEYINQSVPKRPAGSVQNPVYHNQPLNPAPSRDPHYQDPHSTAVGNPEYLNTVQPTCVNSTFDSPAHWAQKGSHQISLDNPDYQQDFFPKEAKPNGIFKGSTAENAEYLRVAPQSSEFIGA
# T5 sequence (P08069 31-736 limits assumed): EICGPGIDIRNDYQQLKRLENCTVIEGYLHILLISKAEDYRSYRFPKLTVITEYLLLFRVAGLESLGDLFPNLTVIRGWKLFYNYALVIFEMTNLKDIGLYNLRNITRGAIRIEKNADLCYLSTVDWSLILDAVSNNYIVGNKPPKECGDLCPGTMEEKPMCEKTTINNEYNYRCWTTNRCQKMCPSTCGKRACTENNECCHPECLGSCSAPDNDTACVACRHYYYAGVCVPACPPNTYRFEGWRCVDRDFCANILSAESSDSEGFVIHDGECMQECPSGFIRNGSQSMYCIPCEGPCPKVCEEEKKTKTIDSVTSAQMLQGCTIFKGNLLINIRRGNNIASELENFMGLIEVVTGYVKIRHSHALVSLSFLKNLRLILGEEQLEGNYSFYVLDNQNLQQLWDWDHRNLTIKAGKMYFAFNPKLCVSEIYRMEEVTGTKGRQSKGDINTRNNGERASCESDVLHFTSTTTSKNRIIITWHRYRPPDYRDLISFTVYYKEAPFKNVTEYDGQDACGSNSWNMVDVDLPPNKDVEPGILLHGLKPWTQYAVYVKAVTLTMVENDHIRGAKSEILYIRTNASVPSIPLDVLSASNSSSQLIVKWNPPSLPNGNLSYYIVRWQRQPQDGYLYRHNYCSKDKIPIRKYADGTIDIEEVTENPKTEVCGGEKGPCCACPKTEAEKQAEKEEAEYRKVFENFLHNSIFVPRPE
# T5 sequence (P08069 741-1367 limits assumed): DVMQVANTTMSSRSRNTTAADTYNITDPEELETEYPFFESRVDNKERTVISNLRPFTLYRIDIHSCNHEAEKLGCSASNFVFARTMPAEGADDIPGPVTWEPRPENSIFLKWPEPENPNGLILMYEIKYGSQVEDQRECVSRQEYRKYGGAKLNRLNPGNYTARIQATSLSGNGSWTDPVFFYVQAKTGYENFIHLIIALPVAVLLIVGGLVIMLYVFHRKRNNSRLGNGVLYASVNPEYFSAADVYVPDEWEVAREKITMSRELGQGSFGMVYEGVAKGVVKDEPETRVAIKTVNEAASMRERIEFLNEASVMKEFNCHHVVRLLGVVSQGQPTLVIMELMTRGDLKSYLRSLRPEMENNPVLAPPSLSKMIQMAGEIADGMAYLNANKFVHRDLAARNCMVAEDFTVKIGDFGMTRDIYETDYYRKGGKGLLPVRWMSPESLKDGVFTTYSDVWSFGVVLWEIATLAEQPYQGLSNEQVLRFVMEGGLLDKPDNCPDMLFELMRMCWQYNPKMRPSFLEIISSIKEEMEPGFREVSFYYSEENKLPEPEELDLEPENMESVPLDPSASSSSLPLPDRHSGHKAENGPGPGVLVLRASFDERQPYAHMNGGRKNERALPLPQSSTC
# T6 sequence (Q02763 whole entry): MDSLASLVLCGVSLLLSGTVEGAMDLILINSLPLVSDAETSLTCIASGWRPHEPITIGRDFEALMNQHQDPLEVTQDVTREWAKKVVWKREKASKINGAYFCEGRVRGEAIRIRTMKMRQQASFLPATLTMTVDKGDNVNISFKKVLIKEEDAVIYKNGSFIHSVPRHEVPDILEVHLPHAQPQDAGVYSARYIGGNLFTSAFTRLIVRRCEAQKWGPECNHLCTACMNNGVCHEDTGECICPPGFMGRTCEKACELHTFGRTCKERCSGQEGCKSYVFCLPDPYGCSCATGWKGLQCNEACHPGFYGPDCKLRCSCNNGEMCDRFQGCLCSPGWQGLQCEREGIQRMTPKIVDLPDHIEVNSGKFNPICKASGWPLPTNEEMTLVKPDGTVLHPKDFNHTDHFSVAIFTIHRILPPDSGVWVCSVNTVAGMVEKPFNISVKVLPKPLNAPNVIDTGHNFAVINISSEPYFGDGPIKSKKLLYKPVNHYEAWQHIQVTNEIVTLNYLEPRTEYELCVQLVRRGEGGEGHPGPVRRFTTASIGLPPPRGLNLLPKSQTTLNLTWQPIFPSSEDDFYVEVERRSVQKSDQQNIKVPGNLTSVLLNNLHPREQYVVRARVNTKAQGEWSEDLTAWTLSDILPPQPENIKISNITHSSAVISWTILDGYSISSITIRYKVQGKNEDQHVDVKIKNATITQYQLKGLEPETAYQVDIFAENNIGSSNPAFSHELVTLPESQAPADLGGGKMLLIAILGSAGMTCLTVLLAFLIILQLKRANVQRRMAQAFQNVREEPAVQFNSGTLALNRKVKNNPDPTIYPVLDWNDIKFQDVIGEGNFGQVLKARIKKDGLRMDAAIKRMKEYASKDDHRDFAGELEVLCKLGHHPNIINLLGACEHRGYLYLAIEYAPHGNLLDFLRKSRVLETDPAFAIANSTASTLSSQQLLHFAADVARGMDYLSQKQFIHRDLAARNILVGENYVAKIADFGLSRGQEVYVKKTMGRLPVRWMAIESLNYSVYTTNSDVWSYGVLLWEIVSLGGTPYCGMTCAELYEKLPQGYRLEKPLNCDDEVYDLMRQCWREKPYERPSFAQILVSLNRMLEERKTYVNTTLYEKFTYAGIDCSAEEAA
# T4 sequence (P04626 whole entry): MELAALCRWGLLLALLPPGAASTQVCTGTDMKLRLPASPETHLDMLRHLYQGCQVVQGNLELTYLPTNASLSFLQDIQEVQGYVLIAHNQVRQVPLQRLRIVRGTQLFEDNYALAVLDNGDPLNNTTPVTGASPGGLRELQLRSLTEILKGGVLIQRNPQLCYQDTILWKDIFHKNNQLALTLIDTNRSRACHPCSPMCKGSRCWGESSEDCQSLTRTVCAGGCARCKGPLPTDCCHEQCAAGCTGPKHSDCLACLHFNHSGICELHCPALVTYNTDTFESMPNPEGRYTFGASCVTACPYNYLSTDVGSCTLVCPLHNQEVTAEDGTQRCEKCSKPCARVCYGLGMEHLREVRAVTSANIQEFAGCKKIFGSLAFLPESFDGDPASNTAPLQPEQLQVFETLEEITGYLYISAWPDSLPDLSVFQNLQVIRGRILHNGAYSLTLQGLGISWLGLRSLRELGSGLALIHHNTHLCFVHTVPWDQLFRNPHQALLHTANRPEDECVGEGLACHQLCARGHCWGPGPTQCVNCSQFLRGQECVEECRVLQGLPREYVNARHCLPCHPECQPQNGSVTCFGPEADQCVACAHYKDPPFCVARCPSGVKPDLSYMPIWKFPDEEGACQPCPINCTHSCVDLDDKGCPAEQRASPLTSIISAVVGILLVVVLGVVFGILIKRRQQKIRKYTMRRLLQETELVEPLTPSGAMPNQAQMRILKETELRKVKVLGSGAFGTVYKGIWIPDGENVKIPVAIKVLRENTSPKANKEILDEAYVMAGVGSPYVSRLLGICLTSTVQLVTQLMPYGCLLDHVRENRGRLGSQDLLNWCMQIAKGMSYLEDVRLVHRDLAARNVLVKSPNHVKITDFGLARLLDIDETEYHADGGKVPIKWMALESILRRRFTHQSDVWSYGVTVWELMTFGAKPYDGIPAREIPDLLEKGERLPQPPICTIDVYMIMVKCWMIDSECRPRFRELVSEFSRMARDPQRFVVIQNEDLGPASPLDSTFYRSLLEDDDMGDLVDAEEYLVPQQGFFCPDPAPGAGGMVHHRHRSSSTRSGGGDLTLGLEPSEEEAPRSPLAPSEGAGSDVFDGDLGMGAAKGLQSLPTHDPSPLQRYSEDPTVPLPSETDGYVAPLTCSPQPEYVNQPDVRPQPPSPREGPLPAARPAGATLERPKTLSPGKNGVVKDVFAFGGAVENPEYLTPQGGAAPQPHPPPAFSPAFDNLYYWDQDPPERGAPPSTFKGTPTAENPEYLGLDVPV
Structure (SMILES),IC50 [1],NI [2],IC50 [3],NI [4],IC50 [5],IC50 (Angiopoietin-1 receptor [6]),NI [7],NI [8],NI [9],IC50 [10],NI (Angiopoietin-1 receptor [11]),IC50 [12]
COC1=CC(=O)C=C(Cc2ccccc2)C1=O,–,inactive,–,inactive,–,18 µM,inactive,inactive,inactive,–,–,–
COC1=CC(=O)C=CC1=O,–,inactive,–,–,–,–,inactive,inactive,inactive,29 µM,inactive,–
CC1=CCC[C@H]2[C@](C)(CC3=C(O)C(O)=C/C(=N\[C@@H](CO)C(=O)O)C3=O)[C@H](C)CC[C@]12C,–,inactive,20 µM,inactive,–,–,inactive,–,inactive,–,inactive,–
COC1=CC(=O)C(N[C@@H](CO)C(=O)O)=CC1=O,–,inactive,8 µM,–,> 50 µM,–,inactive,–,–,> 100 µM,inactive,–
CC(O)C(/N=C1C=C(O)/C(=N\C(C(=O)O)C(C)O)C=C/1O)C(=O)O (configuration not stated),44 µM,–,–,inactive,6 µM,5 µM,–,inactive,–,–,–,3 µM

# Next, values leading:
IC50 [1],NI [2],IC50 [3],NI [4],IC50 [5],IC50 (Angiopoietin-1 receptor [6]),NI [7],NI [8],NI [9],IC50 [10],NI (Angiopoietin-1 receptor [11]),IC50 [12],Structure (SMILES)
> 100 µM,inactive,> 50 µM,inactive,0.5 µM,9 µM,–,–,–,–,–,–,CC(O)C(/N=C1\C(O)=CC(=O)C(O)=C1CC1CCCC2CCCCC21)C(=O)O (configuration not stated)
> 100 µM,inactive,–,–,–,14 µM,–,inactive,inactive,> 100 µM,–,–,COC1=CC(=O)C=C(/C=C2\CCCC3CCCCC23)C1=O (configuration not stated)
